This is an account of results in patent publication US20250002493A1, “PYRIDONE COMPOUND AND PREPARATION METHOD THEREFOR, PHARMACEUTICAL COMPOSITION AND USE” (NANJING CHINA-AUSTRALIA INSTITUTE OF TRANSLATIONAL MEDICINE …, priority 2022, published 2025).

The target in test [1] is BIR3 domain of human cIAP1 (residues 255-364) (Homo sapiens (Human), UniProt Q13490). Put plainly: Fluorescence polarization competitive binding to cIAP1 BIR3. The following applies: FP, peptide probe 5 nM, cIAP1 BIR3 5 nM, 1 hour room temperature. Here is the method:
(§1) The binding affinity of the compounds provided by the present invention to IAP proteins was determined using a fluorescence polarization method (Nikolovska-Colesak et al, Anal. Biochem. 2004, 332:261-73). The recombinant BIR3 domains of human XIAP (residues 238-358), human cIAP1 (residues 255-364) and human cIAP2 (residues 236-342) fusing GST-tags were expressed in E. coli and purified using glutathione agarose 4B affinity chromatography and gel filtration chromatography. A 5-Fam fluorescently modified peptide probe (AbuRPFK(5-Fam)-NH2) was used to test the competitive binding ability of the compounds to the BIR3 domains of XIAP, cIAP1 and cIAP2. The peptide probe (5 nM), XIAP BIR3 (30 nM) or cIAP1 BIR3 (5 nM) or cIAP2 BIR3 (10 nM), and serial diluted compounds were mixed in a test buffer (100 mM potassium phosphate pH 7.5, 100 μg/ml bovine gamma globulin, 0.02% sodium azide, and 1 mM DTT). After incubating the samples at room temperature for 1 hour, the fluorescence polarization values were read using a Tecan microplate reader (FP excitation wavelength 485 nm, […] wavelength 530 nm). The IC50 value was obtained by fitting the curve using nonlinear least square regression with the Graphpad Prism software. The inhibition constant Ki, values were calculated using the Equation Ki, [I]50/([L]50/Kd+[P]0/Kd+1).
Background: In fluorescence polarisation assays a small probe gives low polarisation when free and higher when bound to something large.

Test [2] addresses BIR3 domain of human cIAP2 (residues 236-342) (Homo sapiens (Human), UniProt Q13489). Put plainly: Fluorescence polarization competitive binding to cIAP2 BIR3. The following applies: FP, peptide probe 5 nM, cIAP2 BIR3 10 nM, 1 hour room temperature. As to the method: as §1
For test [3], the target named is BIR3 domain of human XIAP (residues 238-358) (Homo sapiens (Human), UniProt P98170). The experiment in a line: Fluorescence polarization competitive binding to XIAP BIR3. The following applies: FP, peptide probe 5 nM, XIAP BIR3 30 nM, 1 hour room temperature. Here is the method:
as §1

The test system of test [4] is MDA-MB-231 human breast cancer cells. Put plainly: WST-8 cell proliferation assay, MDA-MB-231. It counts as cell-based. To be noted: 72 hours. Here is the method: (§2) The effects of the compounds provided by the present invention on the proliferation of different cancer cell lines were tested using the WST-8 assay kit. This method is based on the reduction of WST-8 by dehydrogenase in live cells to form a highly water-soluble yellow Formazan dye. Cells were seeded in a 96-well plate and cultured with the test compounds at 37° C. under 5% CO2 for 72 hours. Afterwards, 10% (v/v) WST-8 was added, and the samples were incubated for an additional 2-3 hours. The absorbance of the samples was measured at 450 nm using a Tecan microplate reader, and the concentration of the compound that inhibited 50% of cell proliferation (IC50, nM) was calculated. The activity of the compounds provided by the present invention was determined in three cancer cell lines: MDA-MB-231 human breast cancer cells, SK-OV-3 human ovarian cancer cells, and PANC1 human pancreatic cancer.
For orientation: Formazan colour is commonly taken as a measure of viable cells.

Test [5] has as its system SK-OV-3 human ovarian cancer cells. Put plainly: WST-8 cell proliferation assay, SK-OV-3. It counts as cell-based. The following applies: 72 hours, read-out: SKOV-3 IC50. Here is the method:
as §2

Test [6] deals with PANC1 human pancreatic cancer. Put plainly: WST-8 cell proliferation assay, PANC1. It counts as cell-based. To be noted: PANC-1, 72 hours. Here is the method: as §2
The subject of test [7] is MDA-MB-231 cancer cells. The experiment in a line: Inhibitor-induced apoptosis, flow cytometry with Annexin V and propidium iodide. It counts as cell-based, human. To be noted: 3 hours. As to the method:
After treating the cells with 10 nM and 100 nM concentrations of the compounds for 3 hours, the induction of apoptosis was analyzed using flow cytometry with Annexin V and propidium iodide staining.
On the technique in general: Flow cytometry measures light scatter and fluorescence of single cells or particles in a stream.

BIR3 domain of human cIAP1 (residues 255-364), sequence (Q13490 255-364): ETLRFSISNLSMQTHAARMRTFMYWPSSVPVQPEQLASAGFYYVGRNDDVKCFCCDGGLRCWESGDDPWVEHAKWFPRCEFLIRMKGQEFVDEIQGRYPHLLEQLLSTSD
BIR3 domain of human cIAP2 (residues 236-342), sequence (Q13489 236-342): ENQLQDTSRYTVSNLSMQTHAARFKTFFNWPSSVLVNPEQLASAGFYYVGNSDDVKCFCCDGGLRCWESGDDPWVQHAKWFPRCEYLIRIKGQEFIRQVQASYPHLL
BIR3 domain of human XIAP (residues 238-358), sequence (P98170 238-358): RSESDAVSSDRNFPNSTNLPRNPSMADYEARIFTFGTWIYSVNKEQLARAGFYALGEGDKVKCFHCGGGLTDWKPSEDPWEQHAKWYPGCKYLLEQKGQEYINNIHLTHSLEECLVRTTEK

`CN[C@@H](C)C(=O)N[C@H](C(=O)N1CCc2cc(=O)n(Cc3ccc(F)cc3F)cc21)C1CCCCC1` [Compound I-2-4]: the Ki (as a rule, a dissociation constant, usually derived from enzyme kinetics or from competition with a known ligand) in test [1] was 1.3 nM; in test [2], 3.2 nM; in test [3] it was 73.2 nM. Moreover, the IC50 – broadly, the midpoint of a concentration-inhibition curve – in test [4] came out at 8 nM; in test [5] it was 13 nM; in test [6], 75 nM. Also, the “Proportion of apoptotic cells” value in test [7] (Drug concentration 10 nM) is listed as 32%; in test [7] (Drug concentration 100 nM), 45%.
As to `CN[C@@H](C)C(=O)N[C@H](C(=O)N1CCc2cc(=O)n(Cc3ccc(F)cc3)cc21)C(C)(C)C` [Compound I-2-11], the Ki in test [1] came to 0.7 nM; in test [2], 1.7 nM; in test [3], 31.4 nM. Moreover, the IC50 in test [4] is 5 nM; in test [5], 4 nM; in test [6] it was 38 nM. Moreover, the “Proportion of apoptotic cells” value in test [7] (Drug concentration 10 nM) turned out to be 35%; in test [7] (Drug concentration 100 nM) it was 48%.
With `[2H]C([2H])([2H])N[C@@H](C)C(=O)N[C@H](C(=O)N1CCc2cc(=O)n(Cc3ccc(F)cc3)cc21)C1CCCCC1` [Compound I-2-15], the Ki stood at 1 nM in test [1], 4 nM in test [2] and 76.9 nM in test [3]. For the same molecule, the values for the IC50 in test [4], in test [5] and in test [6] were 9 nM, 12 nM and 64 nM, respectively.
For `CN[C@@H](C)C(=O)N[C@H](C(=O)N1CCc2cc(=O)n(Cc3ccc(F)cc3F)cc21)C(C)(C)C` [Compound I-2-20], the Ki in test [1] is 1 nM; in test [2], 1.8 nM; in test [3] it was 21.5 nM. Besides, the IC50 was found to be 3 nM in test [4], 1 nM in test [5] and 33 nM in test [6]. Also, the “Proportion of apoptotic cells” value amounted to 39% in test [7] (Drug concentration 10 nM) and 53% in test [7] (Drug concentration 100 nM).
As to `[2H]C([2H])([2H])N[C@@H](C)C(=O)N[C@H](C(=O)N1CCc2cc(=O)n(Cc3ccc(F)cc3F)cc21)C(C)(C)C` [Compound I-2-22], the figures for the Ki in test [1], in test [2] and in test [3] were 0.8 nM, 1.5 nM and 21 nM, respectively. For the same molecule, the concentration for half-maximal inhibition (IC50) in test [4] was 3 nM; in test [5] it was 2 nM; in test [6] it was 34 nM. The “Proportion of apoptotic cells” value in test [7] (Drug concentration 10 nM) is listed as 38%; in test [7] (Drug concentration 100 nM) it was 52%.
Regarding `CN[C@@H](C)C(=O)N[C@H](C(=O)N1CCc2cc(=O)n(Cc3ccc(F)cc3O)cc21)C(C)(C)C` [Compound I-2-23], the Ki in test [1] was determined as 1 nM; in test [2] it was 2.3 nM; in test [3], 53.6 nM. For the same molecule, the IC50 in test [4] stood at 9 nM; in test [5], 5 nM; in test [6] it was 67 nM. Further, the results for the “Proportion of apoptotic cells” value in test [7] (Drug concentration 10 nM) and in test [7] (Drug concentration 100 nM) were 35% and 50%, respectively.
In the case of `CN[C@@H](C)C(=O)N[C@H](C(=O)N1CC(C)(C)c2cc(=O)n(Cc3ccc(F)cc3F)cc21)C(C)(C)C` [Compound I-2-26], the Ki was found to be 1.4 nM in test [1], 6.9 nM in test [2] and 70.9 nM in test [3]. Also, the IC50 in test [4] amounted to 21 nM; in test [5], 7 nM; in test [6] it was 89 nM. Also, the results for the “Proportion of apoptotic cells” value in test [7] (Drug concentration 10 nM) and in test [7] (Drug concentration 100 nM) were 32% and 47%, respectively.
As to `CN[C@@H](C)C(=O)N[C@H](C(=O)N1CC(C)(C)c2cc(=O)n(Cc3ccc(F)cc3F)cc21)C1CCCCC1` [Compound I-2-27], the Ki stood at 1.9 nM in test [1], 5.7 nM in test [2] and 208 nM in test [3]. Moreover, the results for the IC50 in test [4], in test [5] and in test [6] were 18 nM, 19 nM and 96 nM, respectively. Moreover, the “Proportion of apoptotic cells” value in test [7] (Drug concentration 10 nM) amounted to 31%; in test [7] (Drug concentration 100 nM), 46%.
As for `[2H]C([2H])([2H])N[C@@H](C)C(=O)N[C@H](C(=O)N1CC(C)(C)c2cc(=O)n(Cc3ccc(F)cc3F)cc21)C(C)(C)C` [Compound I-2-28], the values for the Ki in test [1], in test [2] and in test [3] were 1.9 nM, 6.7 nM and 185 nM, respectively. The IC50 in test [4] turned out to be 20 nM; in test [5], 23 nM; in test [6], 124 nM. Besides, the “Proportion of apoptotic cells” value worked out at 29% in test [7] (Drug concentration 10 nM) and 47% in test [7] (Drug concentration 100 nM).
As to `[2H]C([2H])([2H])N[C@@H](C)C(=O)N[C@H](C(=O)N1CC(C)(C)c2cc(=O)n(Cc3ccc(F)cc3)cc21)C(C)(C)C` [Compound I-2-29], the results for the Ki in test [1], in test [2] and in test [3] were 3 nM, 12.7 nM and 568 nM, respectively. Moreover, the IC50 in test [4] was 29 nM; in test [5], 32 nM; in test [6], 165 nM. The “Proportion of apoptotic cells” value is on record as 20% in test [7] (Drug concentration 10 nM) and 42% in test [7] (Drug concentration 100 nM).
As for `CN[C@@H](C)C(=O)N[C@H](C(=O)N1CC(C)(C)c2cc(=O)n(Cc3ccc(F)cc3O)cc21)C(C)(C)C` [Compound I-2-32], the Ki turned out to be 2.2 nM in test [1], 10 nM in test [2] and 343 nM in test [3]. Also, the IC50 in test [4] came to 28 nM; in test [5], 29 nM; in test [6], 189 nM. The “Proportion of apoptotic cells” value came to 21% in test [7] (Drug concentration 10 nM) and 43% in test [7] (Drug concentration 100 nM).
As for `CN[C@@H](C)C(=O)N[C@H](C(=O)N1CC(C)(C)c2cc(=O)n(Cc3ccc(F)cc3)cc21)C(C)(C)C` [Compound I-2-33], the figures for the Ki in test [1], in test [2] and in test [3] were 1.9 nM, 7.9 nM and 288 nM, respectively. For the same molecule, the IC50 in test [4] turned out to be 24 nM; in test [5] it was 27 nM; in test [6], 192 nM. The figures for the “Proportion of apoptotic cells” value in test [7] (Drug concentration 10 nM) and in test [7] (Drug concentration 100 nM) were 23% and 45%, respectively.
Regarding `C[C@H](N)C(=O)N[C@H](C(=O)N1CCc2cc(=O)n(Cc3ccc(F)cc3F)cc21)C(C)(C)C` [Compound I-2-34], the Ki in test [1] was determined as 1.1 nM; in test [2], 1.5 nM; in test [3], 24.1 nM.
Taken in the same sequence, the figures for `[2H]C([2H])([2H])N[C@@H](C)C(=O)N[C@H](C(=O)N1CCc2cc(=O)n(Cc3ccc(F)cc3F)cc21)C(C)(C)C` [Compound I-2-35] were 1.2 nM, 2.6 nM and 33.4 nM.
For `CCn1c2c(cc(Cc3ccc(F)cc3F)c1=O)N(C(=O)[C@@H](NC(=O)[C@H](C)NC)C(C)(C)C)CC2` [Compound I-3-6], the Ki in test [1] was found to be 0.8 nM; in test [2] it was 1.6 nM; in test [3], 12.3 nM.
As to `CN[C@@H](C)C(=O)N[C@H](C(=O)N1CC(C)(C)c2c1cc(Cc1ccc(F)cc1F)c(=O)n2C)C(C)(C)C` [Compound I-3-7], the Ki in test [1] is 1.6 nM; in test [2] it was 5.2 nM; in test [3] it was 45.2 nM.
In the case of `CN[C@@H](C)C(=O)N[C@H](C(=O)N1CCc2c1cc(Cc1ccc(F)cc1F)c(=O)n2CC(F)(F)F)C(C)(C)C` [Compound I-3-8], the Ki in test [1] is 1.3 nM; in test [2] it was 2.1 nM; in test [3], 7.1 nM.
Regarding `CN[C@@H](C)C(=O)N[C@H](C(=O)N1CCc2[nH]c(=O)c(Cc3ccc(F)cc3)cc21)C(C)(C)C` [Compound I-4-3], the Ki in test [1] was 1 nM; in test [2], 1.9 nM; in test [3] it was 8.2 nM.
For `CN[C@@H](C)C(=O)N[C@H]1CN(C(=O)CC(C)C)CC[C@H]2CC[C@@H](C(=O)NC(c3ccccc3)c3ccccc3)N2C1=O` [SM-406, reference compound], the figures for the Ki in test [2] and in test [3] were 5.8 nM and 25.2 nM, respectively. The IC50 in test [4] was determined as 33 nM; in test [5] it was 40 nM; in test [6] it was 241 nM. Also, the “Proportion of apoptotic cells” value came to 6% in test [7] (Drug concentration 10 nM) and 34% in test [7] (Drug concentration 100 nM).
